In US9056874B2, “Complement pathway modulators and uses thereof” (NOVARTIS AG, priority 2012, dated 2015):
pIC50: −log10 of the molar value.

Molecular target: factor B (Homo sapiens, UniProt P00751)
Experiment: assay of Biological Example 2.7
Format: binding
Design: made in house; host or cells: drosophila cells
Conditions: assay of Biological Example 2.7 (Table 2)

Sequence of factor B (P00751 26-764): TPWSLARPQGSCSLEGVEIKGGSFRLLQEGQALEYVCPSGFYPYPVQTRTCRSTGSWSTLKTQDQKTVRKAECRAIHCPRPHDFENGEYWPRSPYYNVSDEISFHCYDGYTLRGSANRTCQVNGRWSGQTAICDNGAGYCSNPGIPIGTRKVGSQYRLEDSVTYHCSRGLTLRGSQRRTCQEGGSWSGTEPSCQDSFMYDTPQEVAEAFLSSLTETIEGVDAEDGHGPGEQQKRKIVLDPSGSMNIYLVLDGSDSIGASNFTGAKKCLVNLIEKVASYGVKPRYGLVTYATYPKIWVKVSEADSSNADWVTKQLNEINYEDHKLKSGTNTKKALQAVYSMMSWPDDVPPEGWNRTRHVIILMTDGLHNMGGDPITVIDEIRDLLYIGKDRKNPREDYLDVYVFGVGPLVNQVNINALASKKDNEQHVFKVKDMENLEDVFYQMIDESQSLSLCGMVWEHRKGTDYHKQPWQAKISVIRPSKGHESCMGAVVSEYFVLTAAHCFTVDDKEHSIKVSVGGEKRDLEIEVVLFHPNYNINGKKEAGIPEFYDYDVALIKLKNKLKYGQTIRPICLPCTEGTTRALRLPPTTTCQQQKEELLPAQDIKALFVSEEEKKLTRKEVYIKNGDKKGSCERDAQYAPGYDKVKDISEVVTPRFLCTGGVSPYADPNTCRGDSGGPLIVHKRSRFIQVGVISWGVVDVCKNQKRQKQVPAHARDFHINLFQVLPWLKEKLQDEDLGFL

| Compound | pIC50 |
| --- | --- |
| COc1cc(C)c2[nH]ccc2c1C(CCCC(=O)O)c1nc2cc(C#N)ccc2[nH]1 (racemic) [Example 157, (±)-5-(5-Cyano-1H-benzo[d]imidazol-2-yl)-5-(5-methoxy-7-methyl-1H-indol-4-yl)pentanoic acid] | 7.41 |
| COc1cc(C)c2[nH]ccc2c1C(c1nc2cc(C#N)ccc2o1)C(C)(C)C(=O)O (racemic) [Example 158, (±)-3-(5-Cyanobenzo[d]oxazol-2-yl)-3-(5-methoxy-7-methyl-1H-indol-4-yl)-2,2-dimethylpropanoic acid] | 4.68 |
| COc1cc(C)c2[nH]ccc2c1C(N)(c1nc2cc(C#N)ccc2o1)C(F)(F)F (single isomer, unassigned) [137-B b) (tr = 2.7 min), (+) or (−)-2-(1-amino-2,2,2-trifluoro-1-(5-methoxy-7-methyl-1H-indol-4-yl)ethyl)benzo[d]oxazole-5-carbonitrile] | 7.70 |
| COc1cc(C)c2[nH]ccc2c1C(N)(c1nc2cc(C#N)ccc2o1)C(F)(F)F (single isomer, unassigned) [137-B b) (tr = 4.6 min), (−) or (+)-2-(1-amino-2,2,2-trifluoro-1-(5-methoxy-7-methyl-1H-indol-4-yl)ethyl)benzo[d]oxazole-5-carbonitrile] | 5.49 |
| CCc1cc(C)c2[nH]ccc2c1C(C)(N)c1nc2cc(C#N)ccc2o1 (single isomer, unassigned) [137-F b) (tr = 3.3 min), (+) or (−)-2-(1-amino-1-(5-ethyl-7-methyl-1H-indol-4-yl)ethyl)benzo[d]oxazole-5-carbonitrile] | 6.77 |
| CCc1cc(C)c2[nH]ccc2c1C(C)(N)c1nc2cc(C#N)ccc2o1 (single isomer, unassigned) [137-F b) (tr = 4.9 min), (−) or (+)-2-(1-amino-1-(5-ethyl-7-methyl-1H-indol-4-yl)ethyl)benzo[d]oxazole-5-carbonitrile] | 8.00 |
| CNC(C)(c1nc2cc(C#N)ccc2o1)c1c(OC)cc(C)c2[nH]ccc12 (single isomer, unassigned) [137-M b) (tr = 2.9 min), (+) or (−)-2-(1-(5-methoxy-7-methyl-1H-indol-4-yl)-1-(methylamino)ethyl)benzo[d]oxazole-5-carbonitrile] | 6.43 |
| CCOC(=O)COC(c1nc2cc(C#N)ccc2[nH]1)(c1c(OC)cc(C)c2[nH]ccc12)C(F)(F)F (single isomer, unassigned) [Example 35-D, (+) or (−)-Ethyl 2-(1-(5-cyano-1H-benzo[d]imidazol-2-yl)-2,2,2-trifluoro-1-(5-methoxy-7-methyl-1H-indol-4-yl)ethoxy)acetate] | 7.62 |
| Cc1cc(O)c(C(N)(c2nc3cc(C#N)ccc3[nH]2)C(F)(F)F)c2cc[nH]c12 (single isomer, unassigned) [Example 141, (+) or (−)-2-(1-amino-2,2,2-trifluoro-1-(5-hydroxy-7-methyl-1H-indol-4-yl)ethyl)-1H-benzo[d]imidazole-5-carbonitrile] | 6.82 |
| Cc1cc(Br)c(C(C)(N)c2nc3cc(C#N)ccc3[nH]2)c2cc[nH]c12 (single isomer, unassigned; (+)) [137-A b) (+), (+)-2-(1-amino-1-(5-bromo-7-methyl-1H-indol-4-yl)ethyl)-1H-benzo[d]imidazole-5-carbonitrile] | 6.92 |
| [2H]C([2H])([2H])OC(C)(c1nc2cc(C#N)ccc2[nH]1)c1c(OC)cc(C)c2[nH]ccc12 (single isomer, unassigned; (+)) [137-I b) (+), (+)-2-(1-(^2H3)methoxy-1-(5-methoxy-7-methyl-1H-indol-4-yl)ethyl)-1H-benzo[d]imidazole-5-carbonitrile] | 6.96 |
| [2H]C([2H])([2H])OC(c1nc2cc(C#N)ccc2[nH]1)(c1c(OC)cc(C)c2[nH]ccc12)C(F)(F)F (single isomer, unassigned; (+)) [137-J b) (+), (+)-2-(2,2,2-trifluoro-1-(^2H3)-methoxy-1-(5-methoxy-7-methyl-1H-indol-4-yl)ethyl)-1H-benzo[d]imidazole-5-carbonitrile] | 5.89 |
| COc1cc(C)c2[nH]ccc2c1C(C)(OC)c1nc2cc(C#N)ccc2o1 (single isomer, unassigned; (+)) [137-K b) (+), (+)-2-(1-methoxy-1-(5-methoxy-7-methyl-1H-indol-4-yl)ethyl)benzo[d]oxazole-5-carbonitrile] | 6.09 |
| COC(C)(c1nc2cc(C#N)ccc2o1)c1c(C2CC2)cc(C)c2[nH]ccc12 (single isomer, unassigned; (+)) [137-L b) (+), (+)-2-(1-(5-cyclopropyl-7-methyl-1H-indol-4-yl)-1-methoxyethyl)benzo[d]oxazole-5-carbonitrile] | 6.14 |
| COc1cc(C)c2[nH]ccc2c1C(C)(O)c1nc2cc(C#N)ccc2o1 (single isomer, unassigned; (+)) [137-N b) (+), (+)-2-(1-hydroxy-1-(5-methoxy-7-methyl-1H-indol-4-yl)ethyl)benzo[d]oxazole-5-carbonitrile] | 7.40 |
| COc1cc(C)c2[nH]cc3c2c1C(c1nc2cc(C#N)ccc2[nH]1)(C(F)(F)F)NC3 (single isomer, unassigned; (+)) [Example 36-F, (+)-2-(6-methoxy-8-methyl-5-(trifluoromethyl)-1,3,4,5-tetrahydropyrrolo[4,3,2-de]isoquinolin-5-yl)-1H-benzo[d]imidazole-5-carbonitrile] | 7.92 |
| COc1cc(C)c2[nH]ccc2c1C(CC(=O)O)c1nc2cc(C#N)ccc2o1 (single isomer, unassigned; (+)) [Example 148-D, (+)-3-(5-cyanobenzo[d]oxazol-2-yl)-3-(5-methoxy-7-methyl-1H-indol-4-yl)propanoic acid] | 6.47 |

| Compound | pIC50 |
| --- | --- |
| COc1cc(C)c2[nH]ccc2c1C(CCC(=O)O)c1nc2cc(C#N)ccc2o1 (single isomer, unassigned; (+)) [Example 149-C, (+)-4-(5-cyanobenzo[d]oxazol-2-yl)-4-(5-methoxy-7-methyl-1H-indol-4-yl)butanoic acid] | 6.80 |
| Cc1cc(Br)c(C(C)(N)c2nc3cc(C#N)ccc3[nH]2)c2cc[nH]c12 (single isomer, unassigned; (-)) [137-A b) (−), (−)-2-(1-amino-1-(5-bromo-7-methyl-1H-indol-4-yl)ethyl)-1H-benzo[d]imidazole-5-carbonitrile] | 7.70 |
| [2H]C([2H])([2H])OC(C)(c1nc2cc(C#N)ccc2[nH]1)c1c(OC)cc(C)c2[nH]ccc12 (single isomer, unassigned; (-)) [137-I b) (−), (−)-2-(1-(^2H3)methoxy-1-(5-methoxy-7-methyl-1H-indol-4-yl)ethyl)-1H-benzo[d]imidazole-5-carbonitrile] | 8.00 |
| [2H]C([2H])([2H])OC(c1nc2cc(C#N)ccc2[nH]1)(c1c(OC)cc(C)c2[nH]ccc12)C(F)(F)F (single isomer, unassigned; (-)) [137-J b) (−), (−)-2-(2,2,2-trifluoro-1-(^2H3)-methoxy-1-(5-methoxy-7-methyl-1H-indol-4-yl)ethyl)-1H-benzo[d]imidazole-5-carbonitrile] | 8.00 |
| COc1cc(C)c2[nH]ccc2c1C(C)(OC)c1nc2cc(C#N)ccc2o1 (single isomer, unassigned; (-)) [137-K b) (−), (−)-2-(1-methoxy-1-(5-methoxy-7-methyl-1H-indol-4-yl)ethyl)benzo[d]oxazole-5-carbonitrile] | 6.70 |
| COC(C)(c1nc2cc(C#N)ccc2o1)c1c(C2CC2)cc(C)c2[nH]ccc12 (single isomer, unassigned; (-)) [137-L b) (−), (−)-2-(1-(5-cyclopropyl-7-methyl-1H-indol-4-yl)-1-methoxyethyl)benzo[d]oxazole-5-carbonitrile] | 6.57 |
| COc1cc(C)c2[nH]ccc2c1C(C)(O)c1nc2cc(C#N)ccc2o1 (single isomer, unassigned; (-)) [137-N b) (−), (−)-2-(1-hydroxy-1-(5-methoxy-7-methyl-1H-indol-4-yl)ethyl)benzo[d]oxazole-5-carbonitrile] | 8.22 |
| COc1cc(C)c2[nH]ccc2c1C(CC(=O)O)c1nc2cc(C#N)ccc2o1 (single isomer, unassigned; (-)) [Example 148-E, (−)-3-(5-cyanobenzo[d]oxazol-2-yl)-3-(5-methoxy-7-methyl-1H-indol-4-yl)propanoic acid] | 6.38 |
| COc1cc(C)c2[nH]ccc2c1C(CCC(=O)O)c1nc2cc(C#N)ccc2o1 (single isomer, unassigned; (-)) [Example 149-D, (−)-4-(5-cyanobenzo[d]oxazol-2-yl)-4-(5-methoxy-7-methyl-1H-indol-4-yl)butanoic acid] | 6.92 |
| COc1cc(C)c2[nH]ccc2c1C(c1nc2cc(C#N)ccc2[nH]1)C(C)C(=O)O (single isomer, unassigned; diastereomer a) [Example 147-D, (±)-3-(5-Cyano-1H-benzo[d]imidazol-2-yl)-3-(5-methoxy-7-methyl-1H-indol-4-yl)-2-methylpropanoic acid (Diastereomer A)] | 6.10 |
| COc1cc(C)c2[nH]ccc2c1C(c1nc2cc(C#N)ccc2[nH]1)C(C)C(=O)O (single isomer, unassigned; diastereomer b) [Example 147-E, (±)-3-(5-Cyano-1H-benzo[d]imidazol-2-yl)-3-(5-methoxy-7-methyl-1H-indol-4-yl)-2-methylpropanoic acid (Diastereomer B)] | 6.80 |
| COc1cc(C)c2[nH]ccc2c1C(c1nc2cc(C#N)ccc2[nH]1)C(C)CO (single isomer, unassigned; diastereomer b) [Example 147-F, (±)-2-(3-hydroxy-1-(5-methoxy-7-methyl-1H-indol-4-yl)-2-methylpropyl)-1H-benzo[d]imidazole-5-carbonitrile (Diastereomer B)] | 7.00 |
| COc1cc(C)c2[nH]ccc2c1C(O)c1nc2cc(C#N)ccc2s1 (stereo not drawn) [Example 137-C] | 7.21 |
| COc1cc(C)c2[nH]ccc2c1C(C)(N)c1nc2cc(C#N)ccc2s1 (stereo not drawn) [Example 137-D] | 6.77 |
| COc1cc(C)c2[nH]ccc2c1C(N)c1nc2cc(C#N)ccc2s1 (stereo not drawn) [Example 137-E] | 6.57 |
| COc1c(F)c(C)c2[nH]ccc2c1C(C)(N)c1nc2cc(C#N)ccc2[nH]1 (stereo not drawn) [Example 137-G] | 7.54 |
